Data from patent US20260345517A1, “DOSAGE REGIMENS FOR TREATING STARGARDT DISEASE” (Alkeus Pharmaceuticals, Inc., priority 2024, published 2026).
“Also recorded” adds a separate entry of the source.

What was measured:
[1] = Open-label multiple dose pharmacokinetic study in healthy volunteers (percentage of deuterated vitamin A in plasma, LC/MS); assay type: in vivo, human; details: for % D3 Vitamin A: average over 24 hours, from AUC
Experimental: Study Design: This was an open-label, non-randomized, multiple dose study in healthy volunteers aged 21 to 70 years of age (inclusion criteria). Subjects who met all entrance criteria at screening were invited to receive the study medication. There were six treatment arms: 2 mg/day, 3.5 mg/day, 5 mg/day, 7 mg/day, 10 mg/day and 14 mg/day gildeuretinol acetate. For the four lower dose groups, the dose regimen was one capsule per day, orally, to be taken at home, preferably in the evening unless a different time was preferred by the subject. For the two highest doses, the dose regimen was two capsules per day, one in the morning and one in the evening, although subjects with a preference to take both capsules at once were offered to do so. After taking the 1st dose at the study site, subjects were invited to return two and four weeks after starting the treatment.
The clinical staff made periodic calls to monitor adverse events and ensure subject compliance. In addition, a text message was sent daily to remind subjects to take their medication. Subjects were instructed to avoid foods that contain large amounts of vitamin A (such as liver-based products), including supplements containing vitamin A, and to report their vitamin A intake by answering a daily text message diary. Fruits and vegetables were permitted without restriction.
Deuterated retinol (gildeuretinol) (“D3”) and non-deuterated retinol (“Do”) and other vitamin A metabolites were measured to calculate the percentage of deuterated vitamin A in plasma. For all treatment groups, plasma samples were collected at baseline, 14±1 days (“2 weeks”) and 28±1 days (“4 weeks”) after initiation of treatment. Blood samples were usually collected following at least 10 hours of fasting (including last gildeuretinol acetate intake), preferably in the morning. For the 7 mg/day and the 14 mg/day groups only, after the first and last dose, blood samples were collected every 4 hours for 24 hours. A liquid chromatography/mass spectrometry assay was used to measure the metabolite levels.
Table 2 provides % D3 Retinol (gildeuretinol, i.e. the percentage of deuterated retinol (gildeuretinol) over total retinol (as deuterated+non-deuterated) in plasma measured 12-24 hours following gildeuretinol acetate intake.
Pharmacokinetic Results (integrated levels over 24 hours post dosing): total vitamin A in plasma, both deuterated (gildeuretinol) and non-deuterated (retinol), was measured every 4 hours following administration of 7 mg or 14 mg at the first dose, and following administration of the 28th dose (4 weeks of daily treatment). The area under the curve (AUC) was calculated and the % deuterated % D3 of total vitamin A (as retinol and gildeuretinol) was computed as an average over 24 hours.

[2] = test system: Stargardt disease patients; test: TEASE-1: growth rate of atrophic retinal lesions by fundus autofluorescence imaging; assay type: in vivo, human; parameters: Percentage Slowing of Atrophic Retinal Lesion Growth Rate With Gildeuretinol Acetate: concentration or dose not given beside the values; details: for effect on retinal degeneration / growth of atrophic retinal lesions (in words): 14 to 24 mg daily, up to 24 months, vs placebo and natural history
Experimental: The Tolerability and Effects of gildeuretinol acetate in Stargardt Disease (Clinical trial group 1 also known as TEASE-1) was a 24-month, multicenter, double-masked, placebo-controlled trial designed to evaluate the efficacy and safety of daily oral gildeuretinol acetate in slowing the growth of atrophic retinal lesions in Stargardt disease patients. The trial was conducted at multiple sites in the United States (NCT02402660).
Patients 12 years or older, clinically diagnosed with Stargardt disease, with at least one ABCA4 mutation, at least one eye presenting with well-demarcated areas of reduced fundus autofluorescence, and with any visual acuity, were eligible.
Patients were randomized to gildeuretinol acetate 14 mg capsules, gildeuretinol acetate 24 mg capsules, or placebo capsules, to be taken once daily for one year. After one year, 50% of randomly selected patients receiving placebo were crossed over in a 1:1 ratio to gildeuretinol acetate 14 mg capsules or gildeuretinol acetate 24 mg capsules for a second year.
Gildeuretinol acetate and placebo capsules were identical appearing capsules. Patients were advised to avoid vitamin A-containing supplements and liver-based products. Fruits and vegetables contain beta-carotene, not preformed vitamin A, and could be consumed without limitation. Trial visits occurred at 8 weeks and 6, 12, 18, and 24 months following screening and randomization.
Deidentified retinal images of patients not enrolled in the trial were included as a natural history cohort. This natural history cohort comprised patients diagnosed with Stargardt disease of any age, with two or more longitudinal fundus autofluorescence images taken at least four months apart over a maximum period of 2.5 years.
The prespecified primary efficacy endpoint was the growth rate of the square root area of atrophic retinal lesions measured by fundus autofluorescence retinal imaging comparing gildeuretinol versus the untreated arm (placebo combined with natural history). Only well-delineated and homogeneous retinal atrophic lesions≥0.2 mm^2 with a summed area≥0.5 mm^2 were included in the primary analysis.
The primary endpoint analysis used a linear mixed-effect model (LMEM) with repeated measures, conferring a higher power to detect smaller effects. All observed data, including both eyes, were utilized. Treatment duration was computed as a continuous measure for each visit based on years since randomization. Adjustments for baseline retinal atrophy used the baseline atrophic retinal lesion size as a fixed effect in the LMEM. Additional fixed effects included treatment arm, treatment duration, and interaction between the treatment arm and treatment duration. Random effects included patient, eye, grader to adjust for correlation between eyes within a patient, graders' assessment of an eye, and observations of the same eye over time. A random effect slope term was added to the effect of treatment duration. Patients who crossed over to gildeuretinol acetate after year one were included in the untreated arm from baseline to year one, then in the gildeuretinol acetate arm from […] upon crossing over to gildeuretinol acetate. The full analysis set (FAS) comprised all randomized patients who received at least one dose of the study drug.
Growth rates of atrophic retinal lesions were computed as two segmented lines over the 24-month treatment period; the first segment was between 0 and 6 months, and the second was between 6 and 24 months. All available data between 0 and 24 months was used to compute the slope of each segment. The primary efficacy endpoint was the slope of the second segment. No constraints were imposed on the Y-intercept. All growth rates were calculated on a per-year basis.
No imputations were made for missing data because the LMEM yields valid inferences under the assumption of a missing-at-random mechanism. […]

CC(=O)OC/C=C(C)/C=C/C=C(C)/C=C/C1=C(C)CCCC1(C)C [gildeuretinol acetate, C20-D3-retinol acetate]
% D3 Vitamin A ([1]; 7 mg/day, 1st dose): 38%
% D3 Vitamin A ([1]; 7 mg/day, 28th dose): 75%
average percentage of deuterated plasma vitamin A of total vitamin A (retinol + gildeuretinol) ([1]; 14 mg once daily, after 4 weeks): 85%
% D3 Vitamin A ([1]; 14 mg/day, 1st dose): 52%
% D3 Vitamin A ([1]; 14 mg/day, 28th dose): 85%
effect on retinal degeneration / growth of atrophic retinal lesions (in words) [2]: met its prespecified primary efficacy endpoint, slowing the mean growth rate of atrophic retinal lesions relative to placebo and natural history; also recorded: slowed the expansion of retinal atrophic lesions; also recorded: slowed the progression of retinal degeneration; also recorded: slows retinal degeneration
effect on retinal degeneration / growth of atrophic retinal lesions (in words) ([2]; listed as Gildeuretinol acetate): met its prespecified primary efficacy endpoint, slowing the mean growth rate of atrophic retinal lesions
Percentage Slowing of Atrophic Retinal Lesion Growth Rate With Gildeuretinol Acetate ([2]; crossover patients: 12 months placebo vs. 12 months treatment): 21%
estimated treatment effect (slowing of atrophic retinal lesion growth) ([2]; depending on the calculation method): 20% to 30
Percentage Slowing of Atrophic Retinal Lesion Growth Rate With Gildeuretinol Acetate ([2]; excluding 2 natural history cases < 18 years old, 9 natural histories > 60 years old): 21%
Percentage Slowing of Atrophic Retinal Lesion Growth Rate With Gildeuretinol Acetate ([2]; excluding 3 randomized patients with one confirmed mutation): 20%
Percentage Slowing of Atrophic Retinal Lesion Growth Rate With Gildeuretinol Acetate ([2]; excluding 13 natural history cases without any confirmed ABCA4 mutations and 6 with one confirmed mutation): 20%
Percentage Slowing of Atrophic Retinal Lesion Growth Rate With Gildeuretinol Acetate ([2]; excluding 16 natural histories with only two follow up time points): 20%
Percentage Slowing of Atrophic Retinal Lesion Growth Rate With Gildeuretinol Acetate ([2]; excluding natural history, randomized patients only, one slope (mm^2)): 30%
Percentage Slowing of Atrophic Retinal Lesion Growth Rate With Gildeuretinol Acetate ([2]; excluding natural history, randomized patients only, two slopes (mm^2)): 23%
growth rate of atrophic retinal lesions ([2]; gildeuretinol acetate arm (14 mg and 24 mg pooled), square root area, slope 6 to 24 months): 0.19 mm/year
Percentage Slowing of Atrophic Retinal Lesion Growth Rate With Gildeuretinol Acetate ([2]; using a single-slope from 0 to 24 months (mm^2)): 31%
Percentage Slowing of Atrophic Retinal Lesion Growth Rate With Gildeuretinol Acetate ([2]; using untransformed areas of atrophic lesions (mm^2)): 28%
difference in growth rate of atrophic retinal lesions versus control ([2]; vs placebo + natural history, 95% CI 0.03 to 0.07): 0.05 mm/year
